We go through 4 molecules from publication PMC5538713, “RORγt and RORα signature genes in human Th17 cells” (PLoS ONE, 2017).

Molecules are shown by their SMILES. Read-outs that look alike come from different tables or passages of the source.

Common to all, as to assay: Cerep selectivity panel
What all share (format): binding

The target in one experiment is T1, A3 (h) (Homo sapiens, UniProt P0DMS8).
T1 construct: purchased Cerep
T1 sequence (P0DMS8 1-318): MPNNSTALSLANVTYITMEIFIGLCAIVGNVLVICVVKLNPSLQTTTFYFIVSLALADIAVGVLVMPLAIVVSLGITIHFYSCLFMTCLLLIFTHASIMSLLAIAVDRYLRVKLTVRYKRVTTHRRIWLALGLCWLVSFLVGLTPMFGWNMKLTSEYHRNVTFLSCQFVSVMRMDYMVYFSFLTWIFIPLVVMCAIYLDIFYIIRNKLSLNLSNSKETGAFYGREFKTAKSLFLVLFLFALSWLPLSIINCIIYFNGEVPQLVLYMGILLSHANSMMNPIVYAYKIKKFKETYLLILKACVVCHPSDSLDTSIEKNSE
To be noted: for inhibition at 1 µM: read-out: % Inhibition at 1µM; for inhibition at 10 µM: read-out: % Inhibition at 10µM. The method, then:
(§1) Supplementary file pone.0181868.s003.docx: S3 Table Selectivity profile of RORγt inverse agonists A, B, C and D. Compounds were evaluated at 1 μM and 10 μM in a panel of assays against 50 receptors, ion channels and transporters (Profile service by Cerep Inc.). (DOCX) Click here for additional data file.
(§2) S3 Table. RORɣt inverse agonists A, B, C and D were evaluated at 1 µM and 10 µM in a panel of assays against 50 receptors, ion channels and transporters (Profile service by Cerep Inc.).

For another experiment, the target named is T2, AT1 (h) (Homo sapiens, UniProt P30556).
T2 construct: purchased Cerep
T2 sequence (P30556 1-359): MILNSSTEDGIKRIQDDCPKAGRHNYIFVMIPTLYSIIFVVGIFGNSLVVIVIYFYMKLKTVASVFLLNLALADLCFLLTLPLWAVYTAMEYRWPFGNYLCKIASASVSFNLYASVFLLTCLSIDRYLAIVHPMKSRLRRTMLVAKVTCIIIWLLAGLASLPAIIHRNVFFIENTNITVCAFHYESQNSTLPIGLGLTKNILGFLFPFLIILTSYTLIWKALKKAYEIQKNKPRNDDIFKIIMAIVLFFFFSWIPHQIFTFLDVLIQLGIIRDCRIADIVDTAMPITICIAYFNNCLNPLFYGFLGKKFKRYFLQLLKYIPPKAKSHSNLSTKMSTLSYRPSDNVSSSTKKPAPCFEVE
As to conditions: for inhibition at 1 µM: read-out: % Inhibition at 1µM; for inhibition at 10 µM: read-out: % Inhibition at 10µM. As to the method:
as §1, §2

The target in another experiment is T3, BK2 (h) (Homo sapiens, UniProt P30411).
T3 construct: purchased Cerep
T3 sequence (P30411 1-391): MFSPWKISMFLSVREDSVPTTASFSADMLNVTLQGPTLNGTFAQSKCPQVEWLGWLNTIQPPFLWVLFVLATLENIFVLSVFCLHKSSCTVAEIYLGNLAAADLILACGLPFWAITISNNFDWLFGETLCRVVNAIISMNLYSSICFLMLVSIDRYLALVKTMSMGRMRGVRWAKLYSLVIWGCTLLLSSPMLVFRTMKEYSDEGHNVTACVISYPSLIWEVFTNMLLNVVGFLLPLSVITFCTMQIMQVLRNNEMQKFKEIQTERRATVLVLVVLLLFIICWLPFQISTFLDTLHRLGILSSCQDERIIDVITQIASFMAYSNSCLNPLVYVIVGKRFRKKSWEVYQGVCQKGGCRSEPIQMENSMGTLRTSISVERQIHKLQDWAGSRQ
To be noted: for inhibition at 1 µM: read-out: % Inhibition at 1µM; for inhibition at 10 µM: read-out: % Inhibition at 10µM. The method, then:
as §1, §2

The next experiment addresses T4, NK3 (h) (Homo sapiens, UniProt P29371).
T4 construct: purchased Cerep
T4 sequence (P29371 1-465): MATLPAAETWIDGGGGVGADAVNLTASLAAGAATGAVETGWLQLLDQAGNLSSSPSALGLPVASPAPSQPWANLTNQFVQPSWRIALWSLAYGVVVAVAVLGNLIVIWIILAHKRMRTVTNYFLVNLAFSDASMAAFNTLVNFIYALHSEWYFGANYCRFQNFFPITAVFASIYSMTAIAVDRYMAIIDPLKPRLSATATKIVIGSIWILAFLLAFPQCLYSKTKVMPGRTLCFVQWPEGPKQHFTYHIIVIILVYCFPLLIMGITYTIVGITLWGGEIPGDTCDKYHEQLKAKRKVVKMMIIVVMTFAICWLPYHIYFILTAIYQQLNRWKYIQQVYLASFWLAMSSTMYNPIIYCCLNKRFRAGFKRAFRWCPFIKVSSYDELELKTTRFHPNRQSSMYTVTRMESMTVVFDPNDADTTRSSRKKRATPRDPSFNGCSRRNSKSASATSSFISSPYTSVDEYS
As to conditions: for inhibition at 1 µM: read-out: % Inhibition at 1µM; for inhibition at 10 µM: read-out: % Inhibition at 10µM. The method, then:
as §1, §2

The target in a further experiment is T5, V1 a (h) (Homo sapiens, UniProt P37288).
T5 construct: purchased Cerep
To be noted: for inhibition at 10 µM: read-out: % Inhibition at 10µM. The method, then:
as §1, §2

The next experiment deals with T6, ɣ2 (h) (Homo sapiens, UniProt P49146).
T6 construct: purchased Cerep
T6 sequence (P49146 1-381): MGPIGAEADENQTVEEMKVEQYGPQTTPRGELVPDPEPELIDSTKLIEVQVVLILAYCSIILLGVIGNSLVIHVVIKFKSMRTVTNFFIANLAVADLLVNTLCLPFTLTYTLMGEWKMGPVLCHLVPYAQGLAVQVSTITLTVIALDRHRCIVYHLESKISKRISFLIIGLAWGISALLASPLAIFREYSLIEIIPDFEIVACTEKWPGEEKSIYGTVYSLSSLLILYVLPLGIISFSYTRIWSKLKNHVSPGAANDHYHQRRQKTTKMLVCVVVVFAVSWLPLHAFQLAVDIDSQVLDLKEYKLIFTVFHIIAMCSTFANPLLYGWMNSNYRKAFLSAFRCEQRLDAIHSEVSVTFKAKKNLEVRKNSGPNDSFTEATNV
As to the method: as §1, §2

The next experiment has as its system ML1.

T5 sequence (P37288 whole entry): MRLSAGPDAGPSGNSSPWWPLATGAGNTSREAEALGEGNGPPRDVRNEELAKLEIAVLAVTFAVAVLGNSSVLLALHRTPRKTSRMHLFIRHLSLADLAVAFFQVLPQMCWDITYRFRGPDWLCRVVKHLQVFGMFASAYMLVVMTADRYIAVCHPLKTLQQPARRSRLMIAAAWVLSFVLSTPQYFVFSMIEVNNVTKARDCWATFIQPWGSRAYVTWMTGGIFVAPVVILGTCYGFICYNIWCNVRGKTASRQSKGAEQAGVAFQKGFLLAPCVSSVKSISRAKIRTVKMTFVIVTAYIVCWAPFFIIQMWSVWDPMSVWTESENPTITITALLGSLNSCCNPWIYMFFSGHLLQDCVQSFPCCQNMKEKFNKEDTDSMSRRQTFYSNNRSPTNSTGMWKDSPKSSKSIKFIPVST

With `COc1nc2ccc([C@](O)(c3ccc(Cl)cc3)c3cncn3C)cc2c(Cl)c1Cc1ccc(-n2cccn2)cc1` [B], the inhibition at 1 µM was 9% on A3 (h); 1% on AT1 (h); 9% on BK2 (h); 1% at NK3 (h); 10% at V1 a (h) (read-out: % Inhibition at 1µM). Further, the inhibition at 10 µM at A3 (h) was 20%; at AT1 (h) it was 16%; at BK2 (h), 6%; at NK3 (h), 10%; on V1 a (h), 10%; on ɣ2 (h), 10%. The “% Inhibition at 1µM” value in the experiment with ML1 is listed as 13%. Moreover, the “% Inhibition at 10µM” value in the experiment on ML1 was 38%.

Regarding `COc1nc2ccc([C@@](O)(c3ccccc3)C3CCN(C(C)=O)CC3)cc2c(Cl)c1Cc1ccc(-n2cccn2)cc1` [C], the inhibition at 1 µM at A3 (h) was 16%; on NK3 (h), 21%. The inhibition at 10 µM stood at 41% on A3 (h), 11% at AT1 (h), 31% at NK3 (h) and 5% at ɣ2 (h). The “% Inhibition at 1µM” value in the experiment on ML1 amounted to 4%. The “% Inhibition at 10µM” value with ML1 was determined as 27%.

Consider `COc1nc2ccc([C@@](O)(c3ccc(C)nc3C)c3cnnn3C)cc2c(Cl)c1Cc1ccc(C(F)(F)F)cc1` [compound A], for which the inhibition at 1 µM came to 49% at A3 (h) (A3 (h), 1 µM); 0% on AT1 (h) (AT1 (h), 1 µM); 6% on BK2 (h) (BK2 (h), 1 µM); 9% on NK3 (h) (NK3 (h), 1 µM). For the same molecule, the inhibition at 10 µM on A3 (h) (A3 (h), 10 µM) came to 92%; on AT1 (h) (AT1 (h), 10 µM), 32%; on NK3 (h) (NK3 (h), 10 µM), 57%; on V1 a (h) (V1 a (h), 10 µM), 19%. Further, the “% Inhibition at 10µM” value in the experiment with ML1 is 39%.

For the molecule `CN(C)c1nc2ccc(C(O)(c3ccncc3)c3cncn3C)cc2c(Cl)c1-c1ccccc1` (stereo not shown) [compound D], the inhibition at 10 µM at A3 (h) is 67%; at AT1 (h), 28%; on BK2 (h) it was 10%; on NK3 (h), 45%; on V1 a (h), 12%; against ɣ2 (h), 15%. Besides, on ɣ2 (h) (1 µM), the inhibition at 1 µM was 10%.
